Test results as given in PubChem BioAssay AID192 (DTP/NCI, 2004).
Where “and” joins values, the source holds several entries; their conditions need not be identical. Equal entries are not always repeated. Toxic doses and inconclusive results are not listed.

Test system: BDF1 mice, B16 melanoma ip, median survival T/C
Test: NCI In Vivo Anticancer Drug Screen. Data for tumor model B16 Melanoma (intraperitoneal) in B6D2F1 (BDF1) mice
Conditions: endpoint: median survival time, higher = longer survival
Experimental: The antitumor activity of compounds was measured in mice bearing transplantable tumors. Survival or tumor size were measured and the results are expressed as the measurement made in the treated group (T) divided by the measurement made in the vehicle treated control group (C). The tumor model used in this assay is B16 Melanoma (intraperitoneal) in B6D2F1 (BDF1) mice

For `O=c1[nH]cc(F)c(=O)[nH]1`, the T/C (dose: 0.5 mg/kg/injection, schedule: Q01DX009 (ip), vehicle: saline) was 107 % of control, the T/C (dose: 1.25 mg/kg/injection, schedule: Q03HX024 (ip), vehicle: saline) was 110 % of control and the T/C (dose: 2.0 mg/kg/injection, schedule: Q01DX009 (ip), vehicle: saline) was 118 % of control. For the same compound, the T/C (dose: 2.5 mg/kg/injection, schedule: Q01DX017 (ip), vehicle: saline) was 104 % of control, the T/C (dose: 2.5 mg/kg/injection, schedule: Q03HX024 (ip), vehicle: saline) was 112 % of control and the T/C (dose: 3.12 mg/kg/injection, schedule: Q01DX009 (ip), vehicle: saline) was 102 % of control. The T/C (dose: 3.8 mg/kg/injection, schedule: Q04DX003 (ip), vehicle: saline) was 116 % of control, the T/C (dose: 5.0 mg/kg/injection, schedule: Q01DX001 (ip), vehicle: saline) was 105 % of control and the T/C (dose: 5.0 mg/kg/injection, schedule: Q01DX009 (ip), vehicle: saline with Tween-80) was 104 % of control. For the same compound, the T/C (dose: 5.0 mg/kg/injection, schedule: Q01DX017 (ip), vehicle: saline) was 107 % of control, the T/C (dose: 5.0 mg/kg/injection, schedule: Q05DX010 (ip), vehicle: saline) was 115 % of control and the T/C (dose: 6.25 mg/kg/injection, schedule: Q01DX009 (ip), vehicle: saline) was 91 % of control. The T/C (dose: 7.0 mg/kg/injection, schedule: Q01DX009 (ip), vehicle: saline) was 117 % of control, the T/C (dose: 7.5 mg/kg/injection, schedule: Q01DX009 (ip), vehicle: saline) was 117 % of control and the T/C (dose: 7.5 mg/kg/injection, schedule: Q04DX003 (ip), vehicle: saline) was 116 % of control. The T/C (dose: 7.8 mg/kg/injection, schedule: Q04DX003 (ip), vehicle: saline) was 104 % of control, the T/C (dose: 10.0 mg/kg/injection, schedule: Q01DX001 (ip), vehicle: saline) was 107 % of control and the T/C (dose: 10.0 mg/kg/injection, schedule: Q01DX009 (ip), vehicle: saline with Tween-80) was 104 % of control and 111 % of control and 114 % of control. The T/C (dose: 10.0 mg/kg/injection, schedule: Q05DX010 (ip), vehicle: saline) was 120 % of control, the T/C (dose: 12.0 mg/kg/injection, schedule: Q01DX009 (ip), vehicle: saline) was 115 % of control and the T/C (dose: 12.5 mg/kg/injection, schedule: Q01DX009 (ip), vehicle: saline) was 123 % of control. For the same compound, the T/C (dose: 12.5 mg/kg/injection, schedule: Q04DX005 (ip), vehicle: saline) was 107 % of control, the T/C (dose: 13.0 mg/kg/injection, schedule: Q04DX003 (ip), vehicle: saline) was 108 % of control and the T/C (dose: 15.0 mg/kg/injection, schedule: Q01DX009 (ip), vehicle: saline) was 121 % of control and 122 % of control. For the same compound, the T/C (dose: 15.0 mg/kg/injection, schedule: Q04DX003 (ip), vehicle: saline) was 122 % of control, the T/C (dose: 20.0 mg/kg/injection, schedule: Q01DX001 (ip), vehicle: saline) was 115 % of control and the T/C (dose: 20.0 mg/kg/injection, schedule: Q01DX009 (ip), vehicle: saline with Tween-80) was 116 % of control and 119 % of control. For the same compound, the T/C (dose: 20.0 mg/kg/injection, schedule: Q01DX017 (ip), vehicle: saline) was 161 % of control and 169 % of control, the T/C (dose: 21.6 mg/kg/injection, schedule: Q04DX003 (ip), vehicle: saline) was 103 % of control and the T/C (dose: 25.0 mg/kg/injection, schedule: Q01DX009 (ip), vehicle: saline) was 119 % of control. The T/C (dose: 25.0 mg/kg/injection, schedule: Q04DX003 (ip), vehicle: saline) was 122 % of control, the T/C (dose: 25.0 mg/kg/injection, schedule: Q04DX005 (ip), vehicle: saline) was 117 % of control and the T/C (dose: 30.0 mg/kg/injection, schedule: Q01DX009 (ip), vehicle: saline) was 124 % of control. For the same compound, the T/C (dose: 30.0 mg/kg/injection, schedule: Q04DX003 (ip), vehicle: saline) was 117 % of control and 122 % of control, the T/C (dose: 36.0 mg/kg/injection, schedule: Q04DX003 (ip), vehicle: saline) was 104 % of control and the T/C (dose: 40.0 mg/kg/injection, schedule: Q01DX001 (ip), vehicle: saline) was 120 % of control. For the same compound, the T/C (dose: 40.0 mg/kg/injection, schedule: Q01DX009 (ip), vehicle: saline with Tween-80) was 88 % of control and 97 % of control, the T/C (dose: 50.0 mg/kg/injection, schedule: Q01DX001 (ip), vehicle: saline) was 110 % of control and the T/C (dose: 50.0 mg/kg/injection, schedule: Q04DX003 (ip), vehicle: saline) was 120 % of control. For the same compound, the T/C (dose: 50.0 mg/kg/injection, schedule: Q04DX005 (ip), vehicle: saline) was 115 % of control, the T/C (dose: 60.0 mg/kg/injection, schedule: Q01DX009 (ip), vehicle: saline) was 39 % of control and the T/C (dose: 60.0 mg/kg/injection, schedule: Q04DX003 (ip), vehicle: saline) was 52 % of control and 119 % of control. The T/C (dose: 90.0 mg/kg/injection, schedule: Q04DX003 (ip), vehicle: saline) was 123 % of control, the T/C (dose: 100.0 mg/kg/injection, schedule: Q01DX001 (ip), vehicle: saline) was 110 % of control and the T/C (dose: 120.0 mg/kg/injection, schedule: Q04DX003 (ip), vehicle: saline) was 93 % of control. For the same compound, the T/C (dose: 200.0 mg/kg/injection, schedule: Q01DX001 (ip), vehicle: saline) was 110 % of control, the T/C (dose: 240.0 mg/kg/injection, schedule: Q04DX003 (ip), vehicle: saline) was 73 % of control and the T/C (dose: 480.0 mg/kg/injection, schedule: Q04DX003 (ip), vehicle: saline) was 47 % of control.
